Assay results as given in patent US12606802B2, “Methods and compositions for improving the assembly of adeno-associated viruses (AAVs)” (priority 2019, dated 2026).
Entries after “also recorded” stand apart in the source; their conditions may differ.

Experiments:
[1] = tested on: AAV2 and AAV8 vector; test: Vector production in HEK293 cells with chemical inhibitors, DRP by qPCR, serotype not separated; assay type: cell-based, adeno-associated virus
Protocol: (§1) Inhibitor-containing media was added to wells and transfection mixtures containing either AAV2 (light bars) or AAV8 (dark bars) production plasmids were added dropwise on top, and vector harvested 48 h later (FIG. 8A). […] To examine whether any of these were not directly inhibiting capsid assembly but rather a result of poor transfection efficiency, an upstream but important factor for vector production, the experiment was repeated adding inhibitors 4 h after transfection mixture was added to allow transfection steps to initiate (FIG. 8B).

[2] = tested on: HEK293 cells; test: General transfection efficiency by imaging EGFP positive cells; assay type: cell-based; settings: for transfection efficiency / EGFP expression: inhibitor 4 h post transfection
[3] = tested on: AAV; settings: cited from earlier work
[4] = tested on: PEI-mediated transfection of plasmid DNA; settings: cited from earlier work
[5] = tested on: VP proteins; settings: cited from earlier work
[6] = tested on: AAV8; test: AAV8 vector production in HEK293 cells with chemical inhibitors, DRP by qPCR; assay type: cell-based, adeno-associated virus
Protocol: as §1

[7] = tested on: AAV2; test: AAV2 vector production in HEK293 cells with chemical inhibitors, DRP by qPCR; assay type: cell-based, adeno-associated virus
Protocol: as §1

[8] = tested on: HEK293 cells; test: Cell viability by ATP levels (Cell Titer Glo); assay type: cell-based; settings: 48 h
[9] = tested on: HEK293 cells; settings: 270 uM; 48 h
Protocol: General transfection efficiency was assessed visually by imaging EGFP positive cells (EGFP is present in the ITR-flanked transgene plasmid), and cell health was assessed visually by brightfield imaging and quantitatively by ATP levels in drug treated wells (light shading, FIG. 8B).
In these experiments, production plasmids were transfected into HEK293 cells and the appropriate inhibitor was serial diluted and added 4 h later at the concentrations indicated along the x-axis. The inhibitor was added at the same concentrations to a parallel plate and ATP levels were quantified by Cell Titer Glo® to assess cell viability after 48 h of incubation. General transfection efficiency (EGFP; present on ITR-flanked transgene plasmid) and cell morphology (Brightfield), at concentrations listed along the x-axis, were assessed by microscopy at 48 h, immediately before vector harvest from the same well.

[10] = inhibitor added immediately before transfection, harvest 48 h
[11] = inhibitor added 4 h after transfection, harvest 48 h
[12] = 6.25 μM, inhibitor added 4 h after transfection
[13] = higher concentrations, particularly 90-270 uM, 4 h post transfection

CO/C1=C\C(C)=C\[C@@H](C)[C@@H](O)[C@@H](C)C/C(C)=C/C=C/[C@H](OC)[C@@H]([C@@H](C)[C@@H](O)[C@H](C)[C@@]2(O)C[C@@H](O)[C@H](C)[C@@H](C(C)C)O2)OC1=O [Bafilomycin A1]
reduction in vector titer ([1]; added 4 h post transfection at low doses): 10 fold
vector production ([1]; inhibitor added immediately before transfection, all doses, harvest 48 h): abolished vector production to background levels
vector titer [1, 10]: abolished vector production
transfection efficiency ([2]; low doses, added 4 h post transfection): no visibly appreciable effect
AAV infection [3]: blocks AAV infection
PEI-mediated transfection of plasmid DNA [4]: blocks PEI-mediated transfection of plasmid DNA
VP protein in the absence of AAP [5]: rescue VP protein; also recorded: rescues degradation of some serotype's VP proteins

O=C1NC(=NCc2cccs2)S/C1=C\c1ccc2ncccc2c1 [Cdk1 inhibitor IV]
vector titer [1, 11]: did not affect vector titer without concomitant decreases in both cell health and transfection efficiency
AAV8 titer [6, 12]: appreciable decrease
AAV2 production [7, 12]: no effect
cell viability ([8]; 6.25 μM, added 4 h after transfection): without affecting cell viability

Cc1ccc2nc(CN(CCN(Cc3nc4ccc(C)cc4[nH]3)Cc3nc4ccc(C)cc4[nH]3)Cc3nc4ccc(C)cc4[nH]3)[nH]c2c1 [NSC348884]
vector titer [1, 11]: not seen
vector titer [1, 10]: large effect

apoptazole
vector titer [1, 11]: strong dose dependent decrease
vector production (GC per living cell as percentage of DMSO control) ([6]; AAV8, lowest level reached, inhibitor 4 h post transfection): 5%
cell death as assayed by ATP abundance ([8]; 300 uM): did not show appreciable cell death
expression of EGFP ([2]; 300 uM, 48 h): robust expression of EGFP
transfection efficiency / EGFP expression ([2]; 48 h): no apparent loss

NS(=O)(=O)c1ccc(N/N=C2\C(=O)Nc3ccc(Br)cc32)cc1 [Cdk2 inhibitor II]
AAV8 production [6, 13]: dose-dependent effect
decrease in AAV8 titer ([6]; higher concentrations, 4 h post transfection): ~10 fold
AAV2 production [7, 13]: dose-dependent effect
cell viability (as assayed by ATP) ([8]; 90-270 uM): without affecting cell viability
gross transfection efficiency (by EGFP visualization) ([2]; 90-270 uM, 48 h): without affecting
cell morphology [9]: affected

O=[N+]([O-])c1ccc(F)c([N+](=O)[O-])c1 [FDNB]
per cell vector production (GC per living cell) ([1]; 4 h post transfection, likely artefact of ATP-based viable cell count): increase

NS(=O)(=O)OC[C@H]1C[C@@H](Nc2ncncc2C(=O)c2ccn(Cc3cccc(Br)c3)n2)C[C@@H]1O [ML-792]
transfection efficiency / EGFP expression ([2]; 48 h): dramatic loss
